According to patent US20250051344A1, “BIFUNCTIONAL SELECTIVE DEGRADERS OF SMARCA2 AND THERAPEUTIC USES THEREOF” (Nurix Therapeutics, Inc., priority 2023, published 2025):

Tests used:
SMARCA4 = biological target: T1, SMARCA4 (Homo sapiens, UniProt P51532); assay: Cellular degradation assay, SMARCA4 (Table 1); assay type: cell-based
T1 construct: endogenous in cells

SMARCA2 = biological target: T2, SMARCA2 (Homo sapiens, UniProt P51531); assay: SMARCA2 Cellular Degradation Assay (Western blot analysis on Jess platform); assay type: cell-based; details: for DC50 / Dmax: cellular degradation; for Fold Selectivity SMARCA4/2: ratio DC50 SMARCA4 / DC50 SMARCA2
T2 construct: endogenous in cells
Experimental: SMARCA2 Cellular Degradation Assay
Western Blot Analysis for SMARCA2 Degradation
Frozen cell pellets were thawed on ice and resuspended in RIPA lysis buffer (Millipore, Cat. No. 20-188) supplemented with 0.2% SDS (Fisher Scientific, Cat. No. 24730020), 200 mM β-glycerophosphate (Alfa Aesar, Cat. No. J62121), 500 mM NaF (Rigaku, Cat. No. 1008046), protease inhibitor (1 tablet per 10 mL, Sigma, Cat. No. 11836170001), 250 U/μL benzonase (Millipore, Cat. No. 71206), 200 mM sodium orthovanadate (FivePhoton, Cat. No. ActVO-4), and 100 mM PMSF (Sigma, Cat. No. 10837091001). 50 μL lysis buffer was used to lyse each pellet containing 5×10E5-1×10E6 live cells extracted from tumors. Lysates were centrifuged for 10 mins at 20,817×g and lysate supernatants were saved for further analysis. Protein levels were determined by the BCA Assay performed according to manufacturer's protocol (EMD Millipore, Cat. No. 71285-3). Samples were evaluated by Western blot analysis on the Jess Platform (ProteinSimple). Lysates were diluted with complete lysis buffer (as described above) and 5 μg of total proteins were loaded onto each capillary. Samples were prepared using the ProteinSimple EZ Standard Pack 1 (Cat. No. PS-ST01EZ-8; containing tubes with powdered (5×) Fluorescent Master Mix, DTT, and biotinylated ladder) and run using the ProteinSimple 25-Capillary Cartridge kit (Cat. No. SM-W004; containing 25-capillary cartridge Wash reagent, and 10× Sample Buffer reagent), the ProteinSimple Anti-Rabbit HRP Detection Module for Jess (Cat. No. DM-001; containing Antibody Diluent, anti-rabbit secondary antibody, Luminol-S, Peroxide, and Streptavidin-HRP), and the ProteinSimple Anti-Mouse NIR Detection Module for Jess (Cat. No. DM-009; containing Antibody Diluent, anti-mouse NIR secondary antibody, and Streptavidin-NIR) as the following describes. The DTT was reconstituted with 40 μL water to make a 400 mM solution, 20 μL of the DTT solution plus 20 μL of 10× Sample Buffer were added to reconstitute the 5× Fluorescent Master Mix, and 20 μL of H2O was used to reconstitute the biotinylated ladder. For each sample, lysate (4 μL) was combined with 5× Fluorescent Master Mix (1 μL) and heated at 95° C. for 5 minutes. Samples were cooled and stored on ice. Primary antibody solution was made using anti-SMARCA2 antibody (Abcam, Cat. No. 240648, 1:10) and anti-beta-Actin antibody (Cell Signaling Technology, Cat. No. 3700S, 1:25) in antibody diluent. The 25-capillary cartridges were prepared per standard ProteinSimple protocol with each sample in a column. For the biotinylated ladder in column 1, the following were added: 5 µL of ladder sample in Row A, 10 μL of antibody diluent in Rows B and C, 10 μL of Streptavidin-NIR in Row D, and 15 μL of a 50:50 Luminol-s/Peroxide solution in Row E. For each test sample (columns 2-25), the following were added per column: 5 μL of sample in Row A, 10 μL of antibody diluent in Row B, 10 μL of primary antibody solution in Row C, 10 μL of secondary antibody in Row D, and 15 μL of a 50:50 Luminol-S/Peroxide solution in Row E. 500 μL wash buffer was added to the wash buffer wells in the cartridge and cartridge was spun at 1000×g for 5 minutes prior to loading into the Jess. Samples were run using the Chemiluminescence and Fluorescence immunoassays in the ProteinSimple Compass for SimpleWestern program (version 5.0.0). After running, SMARCA2, actin, and background curves were identified in the Compass software; note that in the Compass software, the electropherograms are also visualized as bands for comparison with standard Western blot outputs. The electropherogram area reading for each sample curve was normalized to that of the corresponding actin curve per column following background (capillary background) subtraction using the following equation: […]
Following normalization, the percentage of SMARCA2 remaining per sample relative to the vehicle control was calculated as follows: […]

T1 sequence (P51532 whole entry, species assumed): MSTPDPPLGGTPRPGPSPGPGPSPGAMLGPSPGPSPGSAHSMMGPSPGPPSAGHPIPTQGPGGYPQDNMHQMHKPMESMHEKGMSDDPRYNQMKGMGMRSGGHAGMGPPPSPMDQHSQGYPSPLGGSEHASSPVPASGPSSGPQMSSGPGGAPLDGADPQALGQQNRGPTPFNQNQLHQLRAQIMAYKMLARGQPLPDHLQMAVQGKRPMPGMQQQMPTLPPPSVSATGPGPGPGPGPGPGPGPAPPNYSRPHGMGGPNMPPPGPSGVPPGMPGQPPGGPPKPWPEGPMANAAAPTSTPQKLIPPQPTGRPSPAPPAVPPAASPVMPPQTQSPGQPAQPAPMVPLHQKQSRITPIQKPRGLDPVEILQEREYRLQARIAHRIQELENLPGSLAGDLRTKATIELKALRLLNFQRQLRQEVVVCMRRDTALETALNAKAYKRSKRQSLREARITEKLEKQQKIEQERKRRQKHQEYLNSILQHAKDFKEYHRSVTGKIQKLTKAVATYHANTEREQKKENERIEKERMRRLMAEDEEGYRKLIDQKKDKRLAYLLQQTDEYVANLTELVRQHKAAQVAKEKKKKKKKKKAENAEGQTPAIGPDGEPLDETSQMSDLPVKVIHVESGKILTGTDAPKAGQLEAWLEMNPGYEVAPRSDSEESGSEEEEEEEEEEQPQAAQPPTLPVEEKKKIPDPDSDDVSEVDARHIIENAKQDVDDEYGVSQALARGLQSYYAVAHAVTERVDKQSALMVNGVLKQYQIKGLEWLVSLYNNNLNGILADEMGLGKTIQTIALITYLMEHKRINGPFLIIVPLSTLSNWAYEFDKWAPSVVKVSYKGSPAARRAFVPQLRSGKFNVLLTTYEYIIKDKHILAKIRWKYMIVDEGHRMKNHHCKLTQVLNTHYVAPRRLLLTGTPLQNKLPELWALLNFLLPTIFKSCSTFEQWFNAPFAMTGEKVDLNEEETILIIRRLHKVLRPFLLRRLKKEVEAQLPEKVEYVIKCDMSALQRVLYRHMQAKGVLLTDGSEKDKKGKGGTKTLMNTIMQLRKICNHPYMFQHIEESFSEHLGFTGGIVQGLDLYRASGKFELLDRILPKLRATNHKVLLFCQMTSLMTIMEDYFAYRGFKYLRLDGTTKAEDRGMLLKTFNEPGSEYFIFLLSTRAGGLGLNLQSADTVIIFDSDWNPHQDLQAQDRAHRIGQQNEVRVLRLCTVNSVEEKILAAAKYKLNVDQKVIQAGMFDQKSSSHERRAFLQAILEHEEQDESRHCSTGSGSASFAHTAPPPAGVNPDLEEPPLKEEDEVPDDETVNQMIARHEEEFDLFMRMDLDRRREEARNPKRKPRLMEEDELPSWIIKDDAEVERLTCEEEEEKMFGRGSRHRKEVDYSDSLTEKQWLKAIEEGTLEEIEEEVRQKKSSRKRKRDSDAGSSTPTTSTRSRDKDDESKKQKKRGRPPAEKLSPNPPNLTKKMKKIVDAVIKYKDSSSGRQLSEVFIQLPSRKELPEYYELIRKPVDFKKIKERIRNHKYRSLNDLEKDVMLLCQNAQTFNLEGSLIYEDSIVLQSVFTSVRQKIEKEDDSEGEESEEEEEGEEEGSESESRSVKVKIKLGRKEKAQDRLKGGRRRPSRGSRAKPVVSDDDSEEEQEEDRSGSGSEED
T2 sequence (P51531 whole entry, species assumed): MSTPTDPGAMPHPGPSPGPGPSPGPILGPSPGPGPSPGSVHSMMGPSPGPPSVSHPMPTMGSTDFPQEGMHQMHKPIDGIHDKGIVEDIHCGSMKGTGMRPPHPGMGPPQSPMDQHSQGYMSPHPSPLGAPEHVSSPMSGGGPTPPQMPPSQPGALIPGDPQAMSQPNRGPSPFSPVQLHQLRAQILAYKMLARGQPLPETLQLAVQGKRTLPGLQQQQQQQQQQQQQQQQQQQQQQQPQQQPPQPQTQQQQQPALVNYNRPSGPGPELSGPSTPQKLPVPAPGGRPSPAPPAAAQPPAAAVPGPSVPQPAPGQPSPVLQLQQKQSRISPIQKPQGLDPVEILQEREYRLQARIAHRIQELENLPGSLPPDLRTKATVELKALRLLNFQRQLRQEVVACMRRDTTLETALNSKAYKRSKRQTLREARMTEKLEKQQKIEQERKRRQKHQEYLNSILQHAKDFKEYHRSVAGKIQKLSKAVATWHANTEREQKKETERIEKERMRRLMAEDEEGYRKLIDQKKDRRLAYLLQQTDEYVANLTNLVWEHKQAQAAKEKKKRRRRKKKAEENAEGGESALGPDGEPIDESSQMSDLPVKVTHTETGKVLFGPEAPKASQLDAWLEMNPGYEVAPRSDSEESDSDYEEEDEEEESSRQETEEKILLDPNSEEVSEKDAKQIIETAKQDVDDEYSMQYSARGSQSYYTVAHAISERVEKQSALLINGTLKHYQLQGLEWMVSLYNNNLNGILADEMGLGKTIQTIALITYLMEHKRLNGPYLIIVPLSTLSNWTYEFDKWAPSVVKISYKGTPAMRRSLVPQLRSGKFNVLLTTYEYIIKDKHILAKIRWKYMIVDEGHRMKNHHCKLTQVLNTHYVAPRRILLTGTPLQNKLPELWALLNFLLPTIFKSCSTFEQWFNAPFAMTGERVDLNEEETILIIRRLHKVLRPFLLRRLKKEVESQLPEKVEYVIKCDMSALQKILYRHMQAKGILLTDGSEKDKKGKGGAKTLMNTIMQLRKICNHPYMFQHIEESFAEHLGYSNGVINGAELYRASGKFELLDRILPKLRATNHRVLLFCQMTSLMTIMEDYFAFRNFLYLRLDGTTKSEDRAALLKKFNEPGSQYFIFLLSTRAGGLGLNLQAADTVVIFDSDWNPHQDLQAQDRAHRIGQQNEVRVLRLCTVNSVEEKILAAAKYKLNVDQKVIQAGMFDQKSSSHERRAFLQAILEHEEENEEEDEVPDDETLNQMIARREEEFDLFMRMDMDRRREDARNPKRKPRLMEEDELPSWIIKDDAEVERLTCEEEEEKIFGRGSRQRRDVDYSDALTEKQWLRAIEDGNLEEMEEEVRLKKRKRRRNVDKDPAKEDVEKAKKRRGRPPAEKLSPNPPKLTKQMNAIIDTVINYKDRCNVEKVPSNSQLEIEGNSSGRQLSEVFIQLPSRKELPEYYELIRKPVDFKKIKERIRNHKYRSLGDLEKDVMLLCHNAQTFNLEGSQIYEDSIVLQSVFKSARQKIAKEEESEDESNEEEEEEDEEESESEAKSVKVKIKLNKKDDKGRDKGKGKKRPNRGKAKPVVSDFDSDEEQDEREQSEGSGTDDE

Dmax (SMARCA4) [%]	DC50 (SMARCA2) [nM]	Dmax (SMARCA2) [%]	Fold Selectivity SMARCA4/2 (SMARCA2)	DC50 (SMARCA4) [nM]	SMILES
30.4	5.51	81.3	1815	–	CN(C(=O)C1(c2cnn(C)c2)CCN(c2cnnc(-c3ccccc3O)c2)CC1)C1CCN(C2COC3(CCN(c4ccc([C@H]5CCC(=O)NC5=O)cc4)CC3)C2)CC1 (mixture of isomers) [Example 64, N-{1-[(3RS)-8-{4-[(3R)-2,6-dioxopiperidin-3-yl]phenyl}-1-oxa-8-azaspiro[4.5]decan-3-yl]piperidin-4-yl}-1-[6-(2-hydroxyphenyl)pyridazin-4-yl]-n-methyl-4-(1-methyl-1H-pyrazol-4-yl)piperidine-4-carboxamide]
35	68.1	66.8	147	–	Cn1nc(N2CCC(=O)NC2=O)c2cccc(N3CCC(CN4CC5(C4)CN(C(=O)C4(c6ccccc6)CCN(c6cnnc(-c7ccccc7O)c6)CC4)C5)CC3)c21 [Example 123, 1-(7-{4-[(6-{1-[6-(2-hydroxyphenyl)pyridazin-4-yl]-4-phenylpiperidine-4-carbonyl}-2,6-diazaspiro[3.3]heptan-2-yl)methyl]piperidin-1-yl}-1-methyl-1H-indazol-3-yl)-1,3-diazinane-2,4-dione]
59.3	11.9	78.5	6.99	83.4	Cc1cccc(C2(C(=O)N3CC4(CN(CC5CCN(c6ccc(C7CCC(=O)NC7=O)cc6)CC5)C4)C3)CCN(c3cnnc(-c4ccccc4O)c3)CC2)c1 (racemic) [Example 43, rac-(3R)-3-(4-{4-[(6-{1-[6-(2-hydroxyphenyl)pyridazin-4-yl]-4-(3-methylphenyl)piperidine-4-carbonyl}-2,6-diazaspiro[3.3]heptan-2-yl)methyl]piperidin-1-yl}phenyl)piperidine-2,6-dione]
54.4	26.3	77.7	11	295	CN(C(=O)C1(c2ccccc2)CCN(c2cnnc(-c3ccccc3O)c2)CC1)C1CCN(CC2CCN(c3cccc([C@@H]4CCC(=O)NC4=O)c3)CC2)CC1 (racemic) [Example 102, rac-(r)-n-(1-((1-(3-(2,6-dioxopiperidin-3-yl)phenyl)piperidin-4-yl)methyl)piperidin-4-yl)-1-(6-(2-hydroxyphenyl)pyridazin-4-yl)-n-methyl-4-phenylpiperidine-4-carboxamide]
20.3	13.7	70	727	–	COC1(C(=O)N(C)C2CCN(CCC3CCN(c4ccc(C5CCC(=O)NC5=O)cc4)CC3)CC2)CCN(c2cnnc(-c3ccccc3O)c2)CC1 (racemic) [Example 195, rac-N-(1-(2-(1-(4-(2,6-dioxopiperidin-3-yl)phenyl)piperidin-4-yl)ethyl)piperidin-4-yl)-1-(6-(2-hydroxyphenyl)pyridazin-4-yl)-4-methoxy-n-methylpiperidine-4-carboxamide]
13.8	317	50.3	31.55	–	O=C1CC[C@H](c2ccc(N3CCC(CN4CCCC4C4CCN(C(=O)C5(c6ccccc6)CCN(c6cnnc(-c7ccccc7O)c6)CC5)CC4)CC3)cc2)C(=O)N1 (stereo partly drawn) [Example 40, (3R)-3-[4-(4-{[2-(1-{1-[6-(2-hydroxyphenyl)pyridazin-4-yl]-4-phenylpiperidine-4-carbonyl}piperidin-4-yl)pyrrolidin-1-yl]methyl}piperidin-1-yl)phenyl]piperidine-2,6-dione]
54.2	13.9	78	314.31	4370	O=C1CC[C@H](c2ccc(N3CCC(CN4CCC5(C4)CN(C(=O)C4(c6ccccc6)CCN(c6cnnc(-c7ccccc7O)c6)CC4)C5)CC3)cc2)C(=O)N1 [Example 17, (3R)-3-(4-{4-[(2-{1-[6-(2-hydroxyphenyl)pyridazin-4-yl]-4-phenylpiperidine-4-carbonyl}-2,6-diazaspiro[3.4]octan-6-yl)methyl]piperidin-1-yl}phenyl)piperidine-2,6-dione]
65.8	3.14	86.6	7	20.7	CN(C(=O)C1(c2cc3ccccn3n2)CCN(c2cnnc(-c3ccccc3O)c2)CC1)C1CCN(CC2CCN(c3ccc(C4CCC(=O)NC4=O)cc3)CC2)CC1 (racemic) [Example 97, rac-N-{1-[(1-{4-[(3R)-2,6-dioxopiperidin-3-yl]phenyl}piperidin-4-yl)methyl]piperidin-4-yl}-1-[6-(2-hydroxyphenyl)pyridazin-4-yl]-N-methyl-4-{pyrazolo[1,5-a]pyridin-2-yl}piperidine-4-carboxamide]
32.4	31.9	70.8	313	–	O=C1CC[C@H](c2ccc(N3CCC(CN4CCC(NC(=O)C5(C6CCOCC6)CCN(c6cnnc(-c7ccccc7O)c6)CC5)CC45CCC5)CC3)cc2)C(=O)N1 (stereo partly drawn) [Example 161, N-{5-[(1-{4-[(3R)-2,6-dioxopiperidin-3-yl]phenyl}piperidin-4-yl)methyl]-5-azaspiro[3.5]nonan-8-yl}-1-[6-(2-hydroxyphenyl)pyridazin-4-yl]-4-(oxan-4-yl)piperidine-4-carboxamide]
73.1	1.3	94.4	27	34.5	CCN(C(=O)C1(c2ccccc2)CCN(c2cnnc(-c3ccccc3O)c2)CC1)C1CCN(CCC2CCN(c3ccc([C@H]4CCC(=O)NC4=O)cc3)CC2)CC1 [Example 187, N-{1-[2-(1-{4-[(3R)-2,6-dioxopiperidin-3-yl]phenyl}piperidin-4-yl)ethyl]piperidin-4-yl}-n-ethyl-1-[6-(2-hydroxyphenyl)pyridazin-4-yl]-4-phenylpiperidine-4-carboxamide]
70.3	3.24	88.1	10	31.3	O=C1CC[C@H](c2ccc(N3CCC(CN4CCC5(CC4)CN(C(=O)C4(c6ccccc6)CCN(c6cnnc(-c7ccccc7O)c6)CC4)C5)CC3)cc2)C(=O)N1 [Example 194, (3R)-3-(4-{4-[(2-{1-[6-(2-hydroxyphenyl)pyridazin-4-yl]-4-phenylpiperidine-4-carbonyl}-2,7-diazaspiro[3.5]nonan-7-yl)methyl]piperidin-1-yl}phenyl)piperidine-2,6-dione]
86.6	2.16	85	2	3.77	O=C1CC[C@H](c2ccc(N3CCC(C(=O)N4CCC5(CC4)CN(CC4(c6ccccc6)CCN(c6cnnc(-c7ccccc7O)c6)CC4)C5)CC3)cc2)C(=O)N1 [Example 164, (3R)-3-(4-{4-[2-({1-[6-(2-hydroxyphenyl)pyridazin-4-yl]-4-phenylpiperidin-4-yl}methyl)-2,7-diazaspiro[3.5]nonane-7-carbonyl]piperidin-1-yl}phenyl)piperidine-2,6-dione]
